Results published in ChEMBL document CHEMBL1201862, “PubChem BioAssay data set” (2004).
One block for each molecule: values may come before it. Activity calls are given as the source filed them.

Experiments:
[1] = molecular target: Peroxisome proliferator-activated receptor gamma/Nuclear receptor coactivator 1 (Homo sapiens, UniProt P37231); test: (§1) TR-FRET dose response biochemical High Throughput Screening assay for agonists of the steroid receptor coactivator 1 (SRC-1) recruitment by the peroxisome proliferator-activated receptor gamma (PPAR gamma): non-selective agonists. [Related pubchem assays (depositor defined):AID1300, AID1808, AID504735, AID631]; format: protein assay
[2] = molecular target: Peroxisome proliferator-activated receptor gamma/Nuclear receptor coactivator 3 (Homo sapiens, UniProt P37231); test: as §1, with “3 (SRC-3)” for “1 (SRC-1)”, “assays: 1301 (Confirmation screen.), 1048 (Primary screen.)]” for “assays (depositor defined):AID1300, AID1808, AID504735, AID631]”; format: functional
Chain of Peroxisome proliferator-activated receptor gamma/Nuclear receptor coactivator 3 (P37231 whole entry): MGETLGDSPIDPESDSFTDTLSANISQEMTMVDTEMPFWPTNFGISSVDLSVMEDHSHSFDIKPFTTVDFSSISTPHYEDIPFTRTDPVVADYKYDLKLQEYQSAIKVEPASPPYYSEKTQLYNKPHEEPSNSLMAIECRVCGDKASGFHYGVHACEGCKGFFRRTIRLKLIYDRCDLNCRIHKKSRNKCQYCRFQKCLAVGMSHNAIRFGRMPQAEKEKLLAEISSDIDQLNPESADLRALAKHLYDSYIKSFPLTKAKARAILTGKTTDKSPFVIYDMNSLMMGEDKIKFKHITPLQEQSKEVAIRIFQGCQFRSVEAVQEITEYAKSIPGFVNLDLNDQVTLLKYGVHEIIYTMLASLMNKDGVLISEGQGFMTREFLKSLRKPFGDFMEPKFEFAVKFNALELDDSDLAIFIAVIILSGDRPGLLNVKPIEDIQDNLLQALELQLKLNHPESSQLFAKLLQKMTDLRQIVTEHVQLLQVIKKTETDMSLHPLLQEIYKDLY
Chain of Peroxisome proliferator-activated receptor gamma/Nuclear receptor coactivator 3 (Q9Y6Q9 whole entry, further chain): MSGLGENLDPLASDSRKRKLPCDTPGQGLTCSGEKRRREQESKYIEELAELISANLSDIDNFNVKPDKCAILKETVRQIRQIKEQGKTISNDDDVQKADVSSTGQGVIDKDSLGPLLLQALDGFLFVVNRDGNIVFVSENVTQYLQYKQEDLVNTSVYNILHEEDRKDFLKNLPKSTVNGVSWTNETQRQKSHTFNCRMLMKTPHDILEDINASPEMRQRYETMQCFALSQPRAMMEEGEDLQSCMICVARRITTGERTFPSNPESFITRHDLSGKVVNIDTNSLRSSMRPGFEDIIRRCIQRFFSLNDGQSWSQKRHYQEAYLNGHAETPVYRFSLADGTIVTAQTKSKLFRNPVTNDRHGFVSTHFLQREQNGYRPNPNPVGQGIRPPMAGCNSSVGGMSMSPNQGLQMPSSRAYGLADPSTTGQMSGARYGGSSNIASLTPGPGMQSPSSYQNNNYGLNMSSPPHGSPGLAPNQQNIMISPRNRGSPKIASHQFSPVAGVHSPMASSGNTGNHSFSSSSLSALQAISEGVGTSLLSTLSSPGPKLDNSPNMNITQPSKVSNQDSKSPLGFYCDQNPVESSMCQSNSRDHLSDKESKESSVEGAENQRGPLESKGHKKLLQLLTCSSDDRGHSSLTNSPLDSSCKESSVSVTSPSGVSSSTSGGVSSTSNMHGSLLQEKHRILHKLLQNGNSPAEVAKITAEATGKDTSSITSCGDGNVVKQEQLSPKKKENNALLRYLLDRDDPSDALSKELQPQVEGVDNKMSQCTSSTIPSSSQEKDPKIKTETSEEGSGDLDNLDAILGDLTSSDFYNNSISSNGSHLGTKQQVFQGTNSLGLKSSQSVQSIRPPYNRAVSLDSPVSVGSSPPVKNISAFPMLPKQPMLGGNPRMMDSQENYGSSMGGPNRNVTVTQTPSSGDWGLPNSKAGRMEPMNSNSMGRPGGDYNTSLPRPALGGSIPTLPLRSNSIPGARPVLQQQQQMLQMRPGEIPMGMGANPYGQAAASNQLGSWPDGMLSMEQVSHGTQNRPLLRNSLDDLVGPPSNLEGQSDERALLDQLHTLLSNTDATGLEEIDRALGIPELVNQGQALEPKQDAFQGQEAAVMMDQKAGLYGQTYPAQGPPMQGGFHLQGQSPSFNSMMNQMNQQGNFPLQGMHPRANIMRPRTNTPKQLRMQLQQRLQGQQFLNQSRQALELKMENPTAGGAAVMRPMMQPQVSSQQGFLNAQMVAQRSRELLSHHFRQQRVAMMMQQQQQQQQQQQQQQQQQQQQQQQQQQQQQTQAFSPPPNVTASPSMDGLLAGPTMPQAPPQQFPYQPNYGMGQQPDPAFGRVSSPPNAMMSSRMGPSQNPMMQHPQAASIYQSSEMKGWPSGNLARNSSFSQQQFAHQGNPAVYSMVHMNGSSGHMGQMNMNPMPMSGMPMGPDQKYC

[3] = molecular target: Peroxisome proliferator-activated receptor gamma/Nuclear receptor coactivator 2 (Homo sapiens, UniProt P37231); test: TR-FRET dose response biochemical High Throughput Screening assay for agonists of the steroid receptor coactivator 2 (SRC-2) recruitment by the peroxisome proliferator-activated receptor gamma (PPAR gamma): non-selective agonists. [Related pubchem assays: 1297, 1032 ]; format: functional
Chain of Peroxisome proliferator-activated receptor gamma/Nuclear receptor coactivator 2 (P37231 whole entry): as the sequence (P37231 whole entry) above
Chain of Peroxisome proliferator-activated receptor gamma/Nuclear receptor coactivator 2 (Q15596 whole entry, further chain): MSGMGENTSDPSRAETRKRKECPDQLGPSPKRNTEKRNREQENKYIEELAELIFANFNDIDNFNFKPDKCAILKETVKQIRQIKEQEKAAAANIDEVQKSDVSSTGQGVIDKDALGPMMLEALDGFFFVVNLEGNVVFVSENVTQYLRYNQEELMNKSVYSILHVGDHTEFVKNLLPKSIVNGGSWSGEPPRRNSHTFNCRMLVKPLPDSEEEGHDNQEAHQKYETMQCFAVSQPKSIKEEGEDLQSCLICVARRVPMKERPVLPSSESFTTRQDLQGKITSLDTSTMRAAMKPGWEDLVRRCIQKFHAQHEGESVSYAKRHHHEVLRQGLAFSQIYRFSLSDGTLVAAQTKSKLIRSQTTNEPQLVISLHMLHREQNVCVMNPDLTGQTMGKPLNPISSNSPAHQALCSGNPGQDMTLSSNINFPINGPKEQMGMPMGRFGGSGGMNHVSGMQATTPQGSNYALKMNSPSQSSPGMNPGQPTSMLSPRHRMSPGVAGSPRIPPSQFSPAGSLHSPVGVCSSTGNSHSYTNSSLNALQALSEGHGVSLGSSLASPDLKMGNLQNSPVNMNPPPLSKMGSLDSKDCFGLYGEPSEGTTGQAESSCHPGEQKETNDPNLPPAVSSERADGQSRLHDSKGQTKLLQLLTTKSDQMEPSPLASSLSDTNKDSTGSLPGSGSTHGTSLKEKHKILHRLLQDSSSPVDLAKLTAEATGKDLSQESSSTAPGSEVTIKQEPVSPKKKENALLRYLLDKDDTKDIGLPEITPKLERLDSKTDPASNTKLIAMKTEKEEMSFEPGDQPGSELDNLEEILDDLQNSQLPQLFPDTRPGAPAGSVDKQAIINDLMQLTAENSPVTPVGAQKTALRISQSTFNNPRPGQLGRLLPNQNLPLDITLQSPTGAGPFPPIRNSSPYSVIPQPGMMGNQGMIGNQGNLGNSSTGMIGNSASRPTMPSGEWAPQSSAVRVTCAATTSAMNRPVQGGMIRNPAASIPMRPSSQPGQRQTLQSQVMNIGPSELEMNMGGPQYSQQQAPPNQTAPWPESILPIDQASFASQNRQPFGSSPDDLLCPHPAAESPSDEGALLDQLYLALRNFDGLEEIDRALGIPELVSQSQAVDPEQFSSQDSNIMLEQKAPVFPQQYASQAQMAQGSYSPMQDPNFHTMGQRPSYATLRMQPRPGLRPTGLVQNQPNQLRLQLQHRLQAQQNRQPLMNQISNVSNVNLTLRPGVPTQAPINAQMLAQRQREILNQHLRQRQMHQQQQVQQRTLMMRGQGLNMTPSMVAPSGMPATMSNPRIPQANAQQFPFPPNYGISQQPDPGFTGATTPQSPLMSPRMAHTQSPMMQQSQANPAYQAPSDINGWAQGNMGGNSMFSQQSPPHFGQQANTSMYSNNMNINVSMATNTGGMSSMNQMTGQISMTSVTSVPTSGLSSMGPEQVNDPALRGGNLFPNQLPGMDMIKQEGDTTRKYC

SUMO-activating enzyme = SUMO-activating enzyme (Homo sapiens, UniProt Q9UBT2); test: blockers of UBC9-mediated SUMO conjugation – biochemical, AlphaScreen, SUMOylation inhibitor project, confirmation (AID 2018); format: functional
Chain of SUMO-activating enzyme (Q9UBE0 whole entry): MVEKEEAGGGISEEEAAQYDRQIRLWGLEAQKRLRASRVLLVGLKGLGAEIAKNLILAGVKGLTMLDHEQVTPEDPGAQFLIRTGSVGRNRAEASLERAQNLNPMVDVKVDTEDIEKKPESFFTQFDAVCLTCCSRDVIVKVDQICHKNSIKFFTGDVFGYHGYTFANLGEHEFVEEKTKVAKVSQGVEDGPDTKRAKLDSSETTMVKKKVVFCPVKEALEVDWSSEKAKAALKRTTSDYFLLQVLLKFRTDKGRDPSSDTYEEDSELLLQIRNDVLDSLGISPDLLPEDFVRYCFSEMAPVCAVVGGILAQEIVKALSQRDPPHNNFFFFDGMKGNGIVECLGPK
Chain of SUMO-activating enzyme (Q9UBT2 whole entry): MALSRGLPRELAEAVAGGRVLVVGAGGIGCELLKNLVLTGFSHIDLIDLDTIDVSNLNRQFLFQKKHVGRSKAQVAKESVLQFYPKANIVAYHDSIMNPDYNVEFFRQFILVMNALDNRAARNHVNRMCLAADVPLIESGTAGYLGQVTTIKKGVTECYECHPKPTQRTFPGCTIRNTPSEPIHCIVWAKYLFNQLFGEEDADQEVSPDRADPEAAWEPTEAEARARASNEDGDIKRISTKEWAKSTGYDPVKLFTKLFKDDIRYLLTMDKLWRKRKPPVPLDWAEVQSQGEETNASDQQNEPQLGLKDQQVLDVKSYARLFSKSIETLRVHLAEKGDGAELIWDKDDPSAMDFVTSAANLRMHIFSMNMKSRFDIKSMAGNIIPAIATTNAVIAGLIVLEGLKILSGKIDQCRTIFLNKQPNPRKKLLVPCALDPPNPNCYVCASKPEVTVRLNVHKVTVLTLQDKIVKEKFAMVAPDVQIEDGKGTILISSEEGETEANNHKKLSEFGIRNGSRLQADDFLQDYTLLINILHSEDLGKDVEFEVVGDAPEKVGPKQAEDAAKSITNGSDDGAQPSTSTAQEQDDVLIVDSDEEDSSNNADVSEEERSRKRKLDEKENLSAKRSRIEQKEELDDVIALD

Coagulation factor XII = molecular target: T1, Coagulation factor XII (Homo sapiens, UniProt P00748); format: functional;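 also: activated factor XIIa alpha cleaving a fluorogenic AMC peptide substrate; inhibitor potency from loss of enzyme activity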
T1 sequence (P00748 whole entry): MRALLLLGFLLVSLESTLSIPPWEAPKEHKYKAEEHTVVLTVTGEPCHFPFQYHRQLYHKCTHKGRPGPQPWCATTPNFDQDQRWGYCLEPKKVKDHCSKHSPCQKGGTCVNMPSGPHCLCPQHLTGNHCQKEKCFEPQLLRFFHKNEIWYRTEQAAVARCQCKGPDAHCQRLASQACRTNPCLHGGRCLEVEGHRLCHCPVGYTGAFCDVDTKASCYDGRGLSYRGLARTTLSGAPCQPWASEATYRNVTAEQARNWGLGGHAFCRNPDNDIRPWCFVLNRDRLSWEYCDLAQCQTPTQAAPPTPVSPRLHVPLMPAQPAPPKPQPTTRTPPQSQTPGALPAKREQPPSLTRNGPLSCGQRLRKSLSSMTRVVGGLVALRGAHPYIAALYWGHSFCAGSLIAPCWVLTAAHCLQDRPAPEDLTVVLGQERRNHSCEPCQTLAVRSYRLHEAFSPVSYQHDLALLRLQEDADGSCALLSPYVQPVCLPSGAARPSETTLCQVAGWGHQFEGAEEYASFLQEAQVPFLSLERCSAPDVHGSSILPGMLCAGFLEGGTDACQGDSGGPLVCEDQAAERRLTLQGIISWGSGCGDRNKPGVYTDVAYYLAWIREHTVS

[4] = molecular target: Induced myeloid leukemia cell differentiation protein Mcl-1 (Homo sapiens, UniProt Q07820); format: functional
[5] = molecular target: Eukaryotic translation initiation factor 4E (Mus musculus, UniProt P63073); test: blockers of eIF4G binding by eIF4E – biochemical, TR-FRET, dose response (AID 855); format: functional;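 also: potency for disrupting eIF4E binding to eIF4GI seen as loss of FRET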
[6] = molecular target: DNA dC->dU-editing enzyme APOBEC-3A (Homo sapiens, UniProt P31941); test: Dose Response confirmation of small molecule APOBEC3A DNA Deaminase Inhibitors via a fluorescence-based single-stranded DNA deaminase assay. [Related pubchem assays (depositor defined):AID493011, AID493024]; format: functional
[7] = molecular target: DNA dC->dU-editing enzyme APOBEC-3G (Homo sapiens, UniProt Q9HC16); format: functional;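 also: Dose-response counterscreen measuring inhibition of APOBEC3G DNA deaminase activity, run while confirming APOBEC3A inhibitors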
[8] = molecular target: T2, Corticotropin-releasing factor receptor 2/Corticotropin-releasing factor-binding protein (Homo sapiens, UniProt P24387+Q13324); test: activators of CRF receptor 2 with binding protein – uHTS hits, confirmation (AID 602473); format: functional; details: read-out: EC50_Mean
T2 sequence (Q13324 whole entry): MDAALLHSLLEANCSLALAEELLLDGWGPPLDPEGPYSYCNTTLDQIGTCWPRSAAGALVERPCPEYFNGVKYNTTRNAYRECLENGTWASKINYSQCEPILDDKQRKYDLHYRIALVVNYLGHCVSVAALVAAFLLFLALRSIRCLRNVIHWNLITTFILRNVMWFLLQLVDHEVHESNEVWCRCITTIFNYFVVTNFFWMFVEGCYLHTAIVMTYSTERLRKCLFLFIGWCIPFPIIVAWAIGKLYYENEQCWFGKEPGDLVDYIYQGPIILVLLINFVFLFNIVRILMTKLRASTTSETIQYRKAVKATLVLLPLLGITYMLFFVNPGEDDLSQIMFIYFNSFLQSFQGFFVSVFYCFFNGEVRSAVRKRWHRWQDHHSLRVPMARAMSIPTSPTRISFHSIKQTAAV
T2 sequence (P24387 whole entry): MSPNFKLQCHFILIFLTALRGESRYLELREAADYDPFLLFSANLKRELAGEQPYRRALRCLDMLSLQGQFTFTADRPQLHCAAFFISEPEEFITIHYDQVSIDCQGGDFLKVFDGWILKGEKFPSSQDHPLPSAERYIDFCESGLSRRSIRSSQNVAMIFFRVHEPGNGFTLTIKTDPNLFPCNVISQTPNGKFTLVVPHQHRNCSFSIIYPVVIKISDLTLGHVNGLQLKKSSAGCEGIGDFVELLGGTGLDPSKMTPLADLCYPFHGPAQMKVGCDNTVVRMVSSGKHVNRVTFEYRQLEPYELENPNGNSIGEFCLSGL

Bcl-2-like protein 10 = molecular target: T3, Bcl-2-like protein 10 (Homo sapiens, UniProt Q9HD36); test: Bcl-B/TR3 peptide binding disruption – biochemical, fluorescence polarization, FITC-TR3 peptide, selectivity assay for Bfl-1 inhibitor project, primary screen (AID 748);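 also: fluorescence polarization from a fluorescein-labelled TR3 peptide binding purified Bcl-B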
T3 sequence (Q9HD36 whole entry): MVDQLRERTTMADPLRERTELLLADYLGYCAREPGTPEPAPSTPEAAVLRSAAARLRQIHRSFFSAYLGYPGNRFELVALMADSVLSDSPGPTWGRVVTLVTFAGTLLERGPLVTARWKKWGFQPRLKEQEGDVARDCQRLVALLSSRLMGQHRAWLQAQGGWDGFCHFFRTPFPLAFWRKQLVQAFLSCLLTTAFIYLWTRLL

Estrogen receptor = molecular target: T4, Estrogen receptor (Homo sapiens, UniProt P03372);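 also: potency for inhibiting coactivator peptide recruitment to the receptor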
T4 sequence (P03372 whole entry): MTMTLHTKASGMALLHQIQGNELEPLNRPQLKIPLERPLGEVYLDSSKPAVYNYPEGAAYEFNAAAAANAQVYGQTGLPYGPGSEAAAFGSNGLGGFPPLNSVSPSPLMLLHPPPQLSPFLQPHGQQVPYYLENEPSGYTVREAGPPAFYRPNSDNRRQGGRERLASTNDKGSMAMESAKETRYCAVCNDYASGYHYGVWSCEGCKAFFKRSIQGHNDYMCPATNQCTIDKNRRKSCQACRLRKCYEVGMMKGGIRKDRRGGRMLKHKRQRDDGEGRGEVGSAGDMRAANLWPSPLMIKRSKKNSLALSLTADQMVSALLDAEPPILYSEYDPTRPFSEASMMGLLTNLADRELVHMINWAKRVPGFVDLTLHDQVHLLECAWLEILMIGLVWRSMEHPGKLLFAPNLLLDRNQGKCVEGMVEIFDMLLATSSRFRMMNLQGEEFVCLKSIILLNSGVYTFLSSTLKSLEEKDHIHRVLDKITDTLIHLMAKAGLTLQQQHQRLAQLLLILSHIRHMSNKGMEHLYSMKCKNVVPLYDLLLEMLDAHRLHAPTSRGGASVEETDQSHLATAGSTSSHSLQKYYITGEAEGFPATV

- EC50 [1]: > 79.4 µM (inactive)
- EC50 [2]: > 79.4 µM (not active)
- EC50 [3]: > 79.4 µM (not active)
Structure (SMILES): O=C(Nc1ccc(S(=O)(=O)Nc2ncccn2)cc1)c1ccc(Br)s1

- IC50 (SUMO-activating enzyme): 45.3 µM (active)
Structure (SMILES): CCc1nn(CC(=O)NC(C)CCc2ccccc2)c(=O)c2cc3cc(F)ccc3n12 (stereo not drawn)

- IC50 (Coagulation factor XII): > 50 µM (inactive)
Structure (SMILES): CCc1cccc(CC)c1N(COC)C(=O)Cn1c(CO)nc2ccccc21

- IC50 [4]: 35.9 µM (not active)
- IC50 [5]: > 64 µM (inactive)
Structure (SMILES): COc1ccc(NC(C)C(=O)Nc2ccc(C#N)cc2)cc1Cl (stereo not drawn)

Structure (SMILES): COC(=O)Cn1cc(/C=C/c2cc[n+](C)cc2)c2ccccc21
- IC50 [6]: 3.05 µM (active)
- IC50 [7]: 3.58 µM (active)
- EC50 [8]: 8.34 µM (active)

- IC50 (Bcl-2-like protein 10): > 12.5 µM (inactive)
Structure (SMILES): COC(=O)CNc1c(-c2ccccn2)nc2ccc(Br)cn12

- IC50 (Bcl-2-like protein 10): 36.6 µM (active)
- IC50 (Estrogen receptor): 5.19 µM (active)
Structure (SMILES): COc1ccccc1N1CCN(C(=O)c2cc3c(s2)CCC3)CC1
